Data from patent publication US20040162467A1, “Non-invasive transudate extraction” (priority 2001, published 2004).
“And” between values parts separate entries of the source, which are not always exact repeats. Identical values can stand only once.

Assays:
[1] = Trial of FIG. 1 device: blood levels versus ultrasound-extracted transudate levels
Source text: The device of shown in FIG. 1 has been trialed with four individuals. The device was assembled as set out above and was linked to a testosterone and ethanol detectors comprising a HPLC system and Electrochemical detector and a mass spectroscopy system. […] In turn, each subject placed their forearm on the device. The ultrasound generator was set to produce continuous pulsing, collimating ultrasonic energy at 1 MHz and 0.5 W/cm^2. The surface of delivery at the test site was approximately 5 cm^2. Collections were made from the skin surface of the forearm over a period of one minute. Blood samples were drawn simultaneously and analysed for comparison to the ultrasound samples.

[2] = Concentrations in transdermal exudate collected by different formats from sheep, versus serum; details: sheep
Experimental: Sodium lauryl sulfate (40%) and either a commercial ultrasound conductive gel (Aquasonic, Parker Lab., NJ 07004, USA) or a 10% ethanol gel (the two gels were alternated in use) are employed. These gels are designated SLS-UG and SLS-EG respectively herein. Collected SLS-UG and SLS-EG are assayed as for blood. Saliva was divided into two samples. The first sample is stored at −20° C. and assayed as for blood. The second sample is assayed at the time of experimentation using the apparatus and immunosensors described above.
Ten of these animals were used to develop the transdermal exudate collection technique. These 10 animals were penned as above, and a catheter inserted into the jugular vein using known techniques in the art. A mixture of sodium lauryl sulfate and either SLS-UG or SLS-EG was positioned onto the shaved area on the back of each animal. […] At the end of the hour, the remaining mix on the back was collected. The entire procedure was repeated three times. This mix was subject to assay (see below) for hormones and glucose content.
On the following day, one of the two gel mixes were rubbed on and, after 10 min, ultrasound (20 kHz, 10 W/cm^2, pulsed 5 s on/5 s off using an ITO Physiotherapy and rehabilitation unit, Tokyo 176-8605, Japan) applied for 1 min directly onto the mix. Ten minutes later, the mix was again collected and measured. This was then repeated with 2 min of the ultrasound application, and on a following day, the entire procedure repeated using the alternative gel mix on the shaved patch on the animal. Times greater than 2 min were not attempted due to potential risk of skin damage. Blood samples were collected at the time of ultrasound application and again at the time when the gel mix was also collected. The entire ultrasound procedure was then repeated on subsequent days with the addition of an application of a 9V electric field either side of the ultrasound head (in contact with skin).
On a separate day, in a further repeat of the above procedure; the collecting head (50) was positioned onto the ultrasound device. The ultrasound device was modified to ensure good coupling for use with the collecting head and delivery of needed parameters to the skin. The output of the device was reset to achieve the same energy and pulse delivery to the skin's surface as when the collecting head was not present, and the ultrasound device had been placed directly in contact with the gels (as described above). Three fluid flow rates into the collection chamber of the head were compared: 150, 300 and 600 μl/min. The effluent fluid was then assayed. On a final day, this was then repeated with the immunosensors positioned in the exit line from the chamber, with immunosensor measurement of the hormones made as has been described above.

[3] = Flow rate effect on analyte extraction (electrosonophoresis exudate versus serum); format: in vivo; details: for Sonified off membrane*: membrane sonicated in water bath
Experimental: Using the methods above for transudate and serum extraction, an experiment was conducted to determine the effect of flow rates through the head on testosterone recovery. Table 5 sets out the results of the experiment.
In a series of experiments (15 measures per flow rate) flow rates were compared for collection of testosterone in exudate from electrosonophoresis compared to that concurrently measured in serum of the subjects.

[4] = SLS + 10% E + US 1 min + 9 V + Collection Head

For C[C@]12CC[C@H]3[C@@H](CCC4=CC(=O)CC[C@@]43C)[C@@H]1CC[C@@H]2O [Testosterone, testosterone], the “Blood level 1#” value ([1]; day 1, 30 min following 1 hour training (aerobic) and oral 10% ethanol, one value per subject (1-4)) was 3 ng/mL and 7 ng/mL and 9 ng/mL and 4 ng/mL, the “Ultrasound level 1#” value ([1]; day 1, 30 min following 1 hour training and oral 10% ethanol, forearm, 1 MHz, 0.5 W/cm^2, 1 min, one value per subject) was 2 ng/ml (2×) and 4 ng/ml and 7 ng/ml and the “Ultrasound level 2*” value ([1]; repeat on day 3, forearm, 1 MHz, 0.5 W/cm^2, 1 min, one value per subject) was 4 ng/ml (2×) and 6 ng/ml and 3 ng/ml. For the same compound, the “Blood level 2*” value ([1]; repeat on day 3, one value per subject) was 5 ng/mL and 10 ng/mL and 8 ng/mL and 6 ng/mL, the Serum ([2]; SLS + 10% E) was 0.9 ± 0.4 ng/mL and the Exudate ([2]; SLS + 10% E + US 1 min) was 0.02 ± 0.005 ng/mL. For the same compound, the “Relative recovery (exudate vs serum)” value ([2]; SLS + 10% E + US 1 min) was “(2%)”, the Serum ([2]; SLS + 10% E + US 1 min) was 0.9 ± 0.3 ng/mL and the Exudate ([2]; SLS + 10% E + US 1 min + 9 V) was 0.05 ± 0.02 ng/mL. For the same compound, the “Relative recovery (exudate vs serum)” value ([2]; SLS + 10% E + US 1 min + 9 V) was “(7%)”, the Serum ([2]; SLS + 10% E + US 1 min + 9 V) was 0.7 ± 0.6 ng/mL and the Exudate [2, 4] was 0.11 ± 0.06 ng/mL. For the same compound, the “Relative recovery (exudate vs serum)” value [2, 4] was “(14%)”, the Serum [2, 4] was 0.8 ± 0.6 ng/mL and the Serum ([2]; SLS + UG) was 1.1 ± 0.6 ng/mL. For the same compound, the “Recovery as % of serum levels” value ([2]; gel mix with addition of ultrasound application) was 2%, the Collected in exudate ([3]; flow rate 50 μl/min) was 0.05 to 0.09 ng/mL and the “Serum level at same time” value ([3]; flow rate 50 μl/min) was 1.9 to 2.5 ng/mL. For the same compound, the “Sonified off membrane*” value ([3]; flow rate 50 μl/min) was 0.1 to 0.2 ng/mL, the Collected in exudate ([3]; flow rate 100 μl/min) was 0.15 to 0.20 ng/mL and the “Serum level at same time” value ([3]; flow rate 100 μl/min) was 2.0 to 2.4 ng/mL. The “Sonified off membrane*” value ([3]; flow rate 100 μl/min) was 0.05 to 0.07 ng/mL, the Collected in exudate ([3]; flow rate 150 μl/min) was 0.2 to 0.3 ng/mL and the “Serum level at same time” value ([3]; flow rate 150 μl/min) was 1.9 to 2.6 ng/mL. The “Sonified off membrane*” value ([3]; flow rate 150 μl/min) was 0.01 to 0.02 ng/mL, the Collected in exudate ([3]; flow rate 200 μl/min) was 0.21 to 0.30 ng/mL and the “Serum level at same time” value ([3]; flow rate 200 μl/min) was 2.0 to 3.01 ng/mL. The “Sonified off membrane*” value ([3]; flow rate 200 μl/min) was 0.01 to 0.02 ng/mL, the Collected in exudate ([3]; flow rate 300 μl/min) was 0.12 to 0.17 ng/mL and the “Serum level at same time” value ([3]; flow rate 300 μl/min) was 1.9 to 2.8 ng/mL. For the same compound, the “Sonified off membrane*” value ([3]; flow rate 300 μl/min) was 0.08 to 0.12 ng/mL.
